Test results published in ChEMBL document CHEMBL3045801, “Synthesis of 1, 2, 4-Triazolo[1, 5-a]-1, 3, 5-triazine Derivatives for Phytotoxic Activity” (J Pestic Sci, 1995).

Experiments:
Scenedesmus acutus [1] = test: Phytotoxicity against Scenedesmus acutus assessed as inhibition of chlorophyll content after 16 hr by spectrophotometry relative to untreated control; type: functional
Scenedesmus acutus [2] = test: Growth inhibition of Scenedesmus acutus assessed as packed cell volume per ml of algal culture volume after 16 hr (reference value: 3.8 ul pcv/ml); type: functional

Row | Compound | inhibition (INH) (Scenedesmus acutus [1]) [%] | Activity (Scenedesmus acutus [2]) [uL/ml]
1 | NC1=NC=NC2=NC(c3ccc(Cl)cc3)NN12 (stereo not given) | 4.81 | 3.6
2 | N#C/N=C/N=C(\N)N/N=C/c1ccc(Cl)cc1F | 41.65 | 3
3 | N#C/N=C/N=C(\N)N/N=C/c1ccc(Cl)cc1 | 29.21 | 3.1
4 | CCN/C(=N\C=N\C#N)N/N=C(\C)c1ccccc1 | 27.93 | 3.6
5 | O=C1C2=C(CCCC2)C(=O)N1c1ccc(Br)cc1F | 79 | 2.1
6 | Nc1ncnc2nc(-c3ccc(Cl)cc3F)nn12 | 32.61 | 3.1
7 | COc1ccc(/C=N/N/C(N)=N/C=N/C#N)cc1 | 28.77 | 3
8 | Nc1ncnc2nc(-c3ccc(Cl)cc3)nn12 | 25.55 | 3.2
9 | CN/C(=N\C=N\C#N)N/N=C/c1ccccc1 | 32.97 | 3.3
10 | O=C1C2=C(CCCC2)C(=O)N1c1ccc(Cl)cc1 [CHLOROPHTHALIUM] | 2.34 | 2.5
11 | CNc1ncnc2nc(-c3ccc(Cl)cc3)nn12 | 8.07 | 3.7
12 | C/C(=N\N/C(N)=N/C=N/C#N)c1ccc(Cl)cc1 | 37.18 | 3.4
13 | CN/C(=N\C=N\C#N)N/N=C(\C)c1ccccc1 | 6.92 | 3.8
14 | CCOc1cc(Oc2ccc(C(F)(F)F)cc2Cl)ccc1[N+](=O)[O-] [OXYFLUORFEN] | 2.24 | 1.4
15 | NC1=NC=NC2=NC(c3ccc(Cl)cc3F)NN12 (stereo not given) | 10.39 | 3.4
